Measurements taken from patent US9663453B2, “Metabolites and oximes with vasodilator and hypotensive activity” (Universidad de Antofagasta, priority 2014, dated 2017).
“And” between values parts separate entries of the source, which are not always exact repeats. Identical values can stand only once. Like-named read-outs stand apart in the source and are kept apart here.

Tests used:
[1] = test system: PHE-precontracted rat aorta with endothelium (E+); experiment: Vasodilator effect in PHE-precontracted rat aortic rings with intact endothelium (E+); format: cell-based; details: for EC50: read-out: EC50 (concentration required to achieve 50% relaxation of tissue)
Protocol: (§1) 3-5 months old rats with an average weight of 270±30 g, were used for vascular reactivity experiments.
(§2) Measure of Dilation Activity in Rat Aortic Rings
(§3) Obtaining Aorta rings: Group II rats fasted 24 hours were euthanized by cervical fracture. Thoracic aorta was excised carefully from distal to proximal, from the abdominal aortic bifurcation to aortic arch and placed in a Petri dish containing Krebs-Ringer solution at room temperature with the following composition: 120 mM NaCl; 4.2 mM KCl; 1.18 mM KH2PO4; 1.2 mM MgSO4; 1.3 mM CaCl2; 5 mM C6H12O6; and 25 mM NaHCO3 pH 7.4 and constantly gasified with a mixture of 95% O2 and 5% CO2. After removing blood, fat and connective tissue, the aorta was transversely cut in cylindrical rings 2-3 mm in diameter.
(§4) Mounting of Rings: Each ring was mounted between two triangular stainless steel hooks, one hook was suspended in a glass rod (anchorage) and placed in a Single Organ Chamber with 10 ml Krebs-Ringer constantly aerated with 95% O2 and 5% CO2 gaseous mixture and maintained at 37° C. by thermo regulated pump. The second hook was connected by a thread to an Isometric Force Transducer XDCR (Radnoti Glass Technology Inc. USA.), connected to a data acquisition unit PowerLab 8/30 (ADInstruments). The data were processed using LabChart 7 Pro software, provided by ADInstruments.
(§5) Conditioning of Tissue: After being mounted rings were left to rest with no tension for 30 minutes. Subsequently Krebs-Ringer solution was replaced and rings were allowed to rest for 10 minutes. The rings were then carefully tensioned twice at intervals of 10 minutes each at 1.00 g tension value using micromanipulators. Two settings of tension at 1.40 g at 10 minutes interval each were then made. After the period of stabilization of the tissue, tissue viability was assessed by the addition of solution of 60 mM potassium chloride (KCl). After 10 minutes of contraction of the tissue, it was washed twice at intervals of 5 minutes each before the next addition of KCl.
(§6) Measure of vasodilatory activity: The aortic tissue with endothelium already conditioned was applied a tension of 1.4 g, 1 μM PHE solution was added after 10 minutes. PHE was added cumulatively to each single organ bath after stabilization of PHE-induced contractile response. Stock solutions of 10^−1 M concentration in DMSO were prepared to determine the vasodilatory activity of the isolated metabolites. […] The vasodilator effect was recorded for a period of 30 minutes for each of the concentrations used (FIG. 1). The results are expressed as relaxation percent using the following formula: […]
(§7) wherein R1 is the response induced by PHE and R2 is the response after the extracts are added.
(§8) Endothelium integrity was tested by addition of 1 μM ACh to rings precontracted with 1 uM PHE, and rings were considered with intact endothelium when the ACh dilator response was greater than 80%. While rings with response lower than 10% were discarded (FIG. 2).
(§9) Vascular reactivity experiments were performed to establish the vasodilator action of the isolated compounds. For this, compounds at concentration of 10^−4M were added to the organ chamber, the vasodilatory effect in rings with intact endothelium (E+) and without endothelium (E−) pre-contracted with 1 μM PHE was quantified. We performed parallel vehicle control (DMSO) to discard the relaxing effect of aortic tissue.

[2] = test system: PHE-precontracted rat aorta without endothelium (E−); experiment: Vasodilator effect in PHE-precontracted rat aortic rings without endothelium (E−); format: cell-based; details: for Emax at 100 µM: read-out: Emax, maximum relaxation effect; for EC50: dose-response curve; for Emax: read-out: Emax (% relaxation) of dose-response curve
Protocol: as §1, §2, §3, §4, §5, §6, §7, §8, §9

anesthetized rats = experiment: In vivo hypotensive effect in anesthetized rats (mean blood pressure after intravenous administration); details: for % MBP reduction / MBP: mean ± SE
Protocol: Animals used were female albino rats of the Sprague-Dawley strain, obtained from the vivarium of the Universidad de Antofagasta. Two groups of animals were used separated by age:
10-14 months old rats with an average weight of 400±70 g, were used for in vivo experiments. These animals were chosen according to their baseline health status of mild hypertension.
In Vivo Tests—Hypotensive Effect in Anesthetized Rats In vivo experiments were performed using the following protocol. Group I rats were anesthetized with a 5% sodium thiopental aqueous solution at doses of 50 mg/kg animal body weight by intraperitoneal injection. The femoral vein was exposed and cannulated with a PE-10 […] catheter for administering extracts, metabolites and drugs. The right carotid artery was exposed and cannulated using a PE-50 […] catheter filled with heparinized saline (100 IU/mL). This catheter was connected to a pressure transducer (TSD104A) coupled to a data acquisition unit MP100 (BIOPAC Systems Inc) for recording blood pressure. The trachea was exposed and cannulated to facilitate spontaneous breathing of animals. Simultaneously, an ECG recording in derivation II (DII-ECG) was performed using an ECG100B (BIOPAC Systems Inc) module connected to a data acquisition unit MP100. The level of anesthesia of the animals was under constant supervision, so as to remain within surgical levels.
Prior to administration of the next dose, blood pressure and ECG recording were monitored until complete recovery of baseline parameters (pressure and ECG). Effects of each administered dose was measured relative to changes in mean blood pressure, diastolic blood pressure, systolic blood pressure, electrocardiographic changes and compared against the effect of propranolol as a positive control at concentration of 10 mg/Kgweight. After completion of each experiment animals were euthanized by an overdose of anesthetic, by femoral route. The results are expressed as % reduction in BMP, parameter determined using the following equation.
Wherein B is the baseline BMP and E is the value of BMP produced by different doses studied.
All records were performed using 3.9.6.1 Acknowledge software (BIOPAC Systems Inc) and statistical analysis was performed using GraphPad Prism 5.03 software (GraphPad Software Inc.)

[3] = Rattus norvegicus, compound at 10^−4 M, rings with intact endothelium (E+) pre-contracted with 1 μM PHE, FIG. 5A, read-out: Emax (% relaxation)
[4] = Rattus norvegicus, dose-response curve, E+
[5] = Rattus norvegicus, maximum effect at 10^−4 M, increasing doses, E+, read-out: Emax (% relaxation) of dose-response curve
[6] = Rattus norvegicus, compound at 10^−4 M, rings without endothelium (E−) pre-contracted with 1 μM PHE, FIG. 5B
[7] = Rattus norvegicus, increasing doses up to 10^−4 M, E−
[8] = dose 10^−8 (head: mg/Kgweight; text: M), intravenous
[9] = dose 10^−9 (head: mg/Kgweight; text: M), intravenous
[10] = dose 10^−10 (head: mg/Kgweight; text: M), intravenous
[11] = positive control, propranolol 10^−6 M

CC(=O)OCC[N+](C)(C)C [ACh, acetylcholine, reference compound]
Emax at 1 µM ([1]; Rattus norvegicus, 10^−6 M ACh, rings with intact endothelium (E+), FIG. 5A, read-out: Emax (% relaxation), positive control): 105 ± 5%

C=C(C)[C@@H]1Cc2cc(C(C)=O)c(O)cc2O1 [Metabolite (B), 6-hydroxy-2-isopropenyl-5-acetyl-2,3-dihydrobenzofuran]
Emax at 100 µM [1, 3]: 135 ± 3.78%
EC50 [1, 4]: 7.16 nM
Emax at 100 µM [1, 5]: 112 ± 6.21%
concentration from which the vasodilator effect started ([1]; dose-response curve, E+): ≥ 10^−8 M
Emax at 100 µM [2, 6]: 146 ± 4.49%
EC50 ([2]; Rattus norvegicus, E−): 5.94 nM
Emax [2, 7]: 109 ± 7.53%

CC(=O)c1ccc(O)c(CC=C(C)C)c1 [Metabolite (A), 4-hydroxy-3-(isopenten-2-yl)-acetophenone]
% MBP reduction (anesthetized rats; dose 10^−4 M, intravenous): 46.93±1.01%
MBP (anesthetized rats; dose 10^−4 M, intravenous): 72.12 ± 2.92 mmHg
% MBP reduction (anesthetized rats; dose 10^−4 M, intravenous, listed as Metabolite 1): 46.93 ± 1.01%
% MBP reduction (anesthetized rats; dose 10^−5 M, intravenous): 45.37 ± 1.09%
MBP (anesthetized rats; dose 10^−5 M, intravenous): 74.24 ± 2.76 mmHg
% MBP reduction (anesthetized rats; dose 10^−6 M, intravenous): 35.92 ± 2.01%
MBP (anesthetized rats; dose 10^−6 M, intravenous): 87.09 ± 1.14 mmHg
% MBP reduction (anesthetized rats; dose 10^−7 M, intravenous): 29.68 ± 3.42%
MBP (anesthetized rats; dose 10^−7 M, intravenous): 95.56 ± 5.01 mmHg
% MBP reduction (anesthetized rats; dose 10^−8 M, intravenous): 25.68 ± 5.24%
MBP (anesthetized rats; dose 10^−8 M, intravenous): 101.0 ± 8.06 mmHg
% MBP reduction (anesthetized rats; dose 10^−9 M, intravenous): 23.62 ± 5.76%
MBP (anesthetized rats; dose 10^−9 M, intravenous): 103.8 ± 7.98 mmHg
% MBP reduction (anesthetized rats; dose 10^−10 M, intravenous): 16.56 ± 9.38%
MBP (anesthetized rats; dose 10^−10 M, intravenous): 113.4 ± 12.59 mmHg
concentration from which the effect on MBP starts being significant (anesthetized rats; intravenous, anesthetized rats): ≥ 10^−6 M
Emax at 100 µM [1, 3]: 122 ± 2.09%
EC50 [1, 4]: 8.98 nM
Emax at 100 µM [1, 5]: 111 ± 7.62%
concentration from which the vasodilator effect started ([1]; dose-response curve, E+): ≥ 10^−8 M
Emax at 100 µM [2, 6]: 118 ± 10.7%
EC50 ([2]; Rattus norvegicus, E−): 7.31 nM
Emax [2, 7]: 109 ± 7.53%

CC(C)=CCc1cc(/C(C)=N/O)ccc1O [Oxime (1), 4-hydroxy-3-(isopenten-2-yl)-acetophenoxime]
% MBP reduction (anesthetized rats; dose 10^−7 (head: mg/Kgweight; text: M), intravenous, maximum effect): 70.61 ± 4.32%
% MBP reduction (anesthetized rats; dose 10^−7 (head: mg/Kgweight; text: M), intravenous, maximum effect, listed as oxime (1)): 70.61±4.32%
MBP (anesthetized rats; dose 10^−7 (head: mg/Kgweight; text: M), intravenous): 41.65 ± 0.85 mmHg
% MBP reduction (anesthetized rats; [8]): 58.31 ± 3.26%
MBP (anesthetized rats; [8]): 59.05 ± 2.09 mmHg
% MBP reduction (anesthetized rats; [9]): 38.41 ± 2.35%
MBP (anesthetized rats; [9]): 87.28 ± 1.90 mmHg
% MBP reduction (anesthetized rats; [10]): 36.60 ± 7.90%
MBP (anesthetized rats; [10]): 89.84 ± 10.88 mmHg
concentration from which the effect on MBP starts being significant (anesthetized rats; intravenous, anesthetized rats): ≥ 10^−9 M
doses that induced acute hypotension and subsequent animal death by cardiac arrest (anesthetized rats; intravenous, anesthetized rats): higher than 10^−7 M
Emax at 100 µM [1, 3]: 130 ± 2.54%
EC50 [1, 4]: 6 nM
Emax at 100 µM [1, 5]: 119 ± 3.92%
tissue relaxation ([1]; at concentration 10^−5 M, dose-response curve, E+): 101.6±0.90%
concentration from which the vasodilator effect started ([1]; dose-response curve, E+): ≥ 10^−9 M
Emax at 100 µM [2, 6]: 120 ± 1.74%
EC50 ([2]; Rattus norvegicus, E−): 6.56 nM
Emax [2, 7]: 114 ± 6.19%

CC(C)NCC(O)COc1cccc2ccccc12 (centres unmarked) [propranolol, reference compound]
% MBP reduction (anesthetized rats; [11]): 18.99 ± 4.35% and 22.29 ± 3.20%
MBP (anesthetized rats; [11]): 110.1 ± 6.03 mmHg and 108.70 ± 8.55 mmHg

C=C(C)C1Cc2cc(C(C)=NO)c(O)cc2O1 (centres unmarked) [Oxime (2), 6-hydroxy-2-isopropenyl-5-acetyloxime-2,3-dihydrobenzofuran]
Emax (% relaxation) ([1]; compound at 10^−4 M, rings with intact endothelium (E+) pre-contracted with 1 μM PHE, FIG. 5A): 118.4±0.93%
concentration from which the vasodilator effect started ([1]; dose-response curve, E+): ≥ 10^−8 M
EC50 ([1]; dose-response curve, E+): 4.3 nM
Emax (% relaxation) of dose-response curve ([1]; maximum effect at 10^−4 M, increasing doses, E+): 109.3±2.72%
Emax, maximum relaxation effect ([2]; compound at 10^−4 M, rings without endothelium (E−) pre-contracted with 1 μM PHE, FIG. 5B): 117.7±1.00%
EC50 ([2]; E−): 4.65 nM
Emax (% relaxation) of dose-response curve ([2]; increasing doses up to 10^−4 M, E−): 110.3±4.40%
